What was measured:
[1] = tested on: wt-mt (RNA, rRNA) GGCGUCACCCUCCUC/GAGGAGACAAGUCGCC; assay: fluorescence titration; details: 150 mM NaCl, 3 mM Na2EDTA; apparent; 10 mM HEPES pH 7.4; 1 μM RNA
[2] = tested on: mut-mt (RNA, rRNA) GGCGUCACCCUCCUC/GAGGAGGCAAGUCGCC; assay: fluorescence titration; details: 150 mM NaCl, 3 mM Na2EDTA; apparent; 10 mM HEPES pH 7.4; 1 μM RNA

Compound | Kd [1] | Kd [2]
CCC[C@H]1[C@H](O)[C@@H](N)[C@@H](O[C@H]2[C@H](O[C@@H]3O[C@H](CO)[C@@H](O[C@H]4O[C@@H](CN)[C@@H](O)[C@H](O)[C@H]4N)[C@H]3O)[C@@H](O)[C@H](N)C[C@@H]2N)O[C@@H]1CO | 26.9 ± 4.7 µM | 5.8 ± 1.8 µM
NC[C@@H]1O[C@H](O[C@H]2[C@@H](O)[C@H](O[C@@H]3[C@@H](O)[C@H](N)C[C@H](N)[C@H]3O[C@H]3O[C@H](CN)[C@@H](O)[C@H](O)[C@H]3N)O[C@@H]2CO)[C@H](N)[C@@H](O)[C@@H]1O | 1.1 ± 0.5 µM | 0.1 ± 0.02 µM
NC[C@@H]1O[C@H](O[C@H]2[C@@H](O)[C@H](O[C@@H]3[C@@H](O)[C@H](N)C[C@H](N)[C@H]3O[C@H]3O[C@H](CO)[C@@H](O)[C@H](O)[C@H]3N)O[C@@H]2CO)[C@H](N)[C@@H](O)[C@@H]1O | 6.5 ± 0.9 µM | 2.8 ± 0.5 µM
CCO[C@H]1[C@H](O)[C@@H](N)[C@@H](O[C@H]2[C@H](O[C@@H]3O[C@H](CO)[C@@H](O[C@H]4O[C@@H](CN)[C@@H](O)[C@H](O)[C@H]4N)[C@H]3O)[C@@H](O)[C@H](N)C[C@@H]2N)O[C@@H]1CO | 12.8 ± 2.8 µM | 8.6 ± 2.1 µM

From article PMC6961810 (2019)
